Measurements from US10105357B2, “Indication of antibiotic drugs for preparation of cancer inhibition pharmaceutical composition” (LAUNX BIOMEDICAL CO., LTD., priority 2014, dated 2018).
Where a name gives a salt, the structure may show the parent alone. Read-outs that look alike come from different tables or passages of the source.

Tests used:
[1] = test system: MDA-MB-231 (Mammary Gland, Adenocarcinoma); assay: Cell viability analysis, breast cancer MDA-MB-231; type: cell-based, human; conditions: Homo sapiens, MDA-MB-231, 72 h; MDA-MB231; repeated experiment; read-out: The results of antibiotic drug inhibiting cancer cell lines (cell viability analysis), MDA-MB231
U-2OS = assay: Cell viability analysis, osteosarcoma U-2OS; type: cell-based, human; conditions: Homo sapiens, 72 h; U2OS; repeated experiment; read-out: The results of antibiotic drug inhibiting cancer cell lines (cell viability analysis), U2OS
[2] = test system: Hep3B (hepatocellular carcinoma); assay: Cell viability analysis, hepatic cancer Hep3B; type: cell-based, human; conditions: Homo sapiens, 72 h; Hep3B; repeated experiment; read-out: The results of antibiotic drug inhibiting cancer cell lines (cell viability analysis), Hep3B
NIH: OVCAR-3 = assay: Cell viability analysis, ovarian cancer NIH: OVCAR-3; type: cell-based, human; conditions: Homo sapiens, 72 h; NIH-OVCAR-3; repeated experiment; read-out: The results of antibiotic drug inhibiting cancer cell lines (cell viability analysis), NIH-OVCAR-3
[3] = test system: HI650 (Lung Adenocarcinoma); assay: Cell viability analysis, lung cancer HI650; type: cell-based, human; conditions: Homo sapiens, NCI-H1650, 72 h
T24 = assay: Cell viability analysis, bladder cancer T24; type: cell-based, human; conditions: Homo sapiens, T-24, 72 h; T24; repeated experiment; read-out: The results of antibiotic drug inhibiting cancer cell lines (cell viability analysis), T24
[4] = test system: 786-O (Renal adenocarcinoma); assay: Cell viability analysis, renal cancer 786-O; type: cell-based, human; conditions: Homo sapiens, 786-0, 72 h; 786-O; repeated experiment; read-out: The results of antibiotic drug inhibiting cancer cell lines (cell viability analysis), 786-O
[5] = test system: AGS (Gastric Adenocarcinoma); assay: Cell viability analysis, gastric cancer AGS; type: cell-based, human; conditions: Homo sapiens, 72 h
[6] = test system: TSGH-8301 (Urinary Bladder Carcinoma); assay: Cell viability analysis, bladder cancer TSGH-8301; type: cell-based, human; conditions: Homo sapiens, 72 h
[7] = test system: A549 (Lung Adenocarcinoma); assay: Cell viability analysis, lung cancer A549; type: cell-based, human; conditions: Homo sapiens, A549, 72 h
[8] = test system: HL-60 (Acute Promyelocytic Leukemia); assay: Cell viability analysis, leukemia HL-60; type: cell-based, human; conditions: Homo sapiens, HL-60, 72 h, drug 10 μM, 72 hours, WST-1, OD450 nm; read-out: cell viability (survival rate), HL-60
TOV-21G = assay: Cell viability analysis, ovarian cancer TOV-21G; type: cell-based, human; conditions: Homo sapiens, TOV21G, 72 h; TOV-21G; repeated experiment; read-out: The results of antibiotic drug inhibiting cancer cell lines (cell viability analysis), TOV-21G
[9] = test system: MCF7 (Mammary Gland, Adenocarcinoma); assay: Cell viability analysis, breast cancer MCF7; type: cell-based, human; conditions: Homo sapiens, MCF7, 72 h
[10] = test system: SAS (Tongue squamous cell carcinoma); assay: Cell viability analysis, tongue cancer SAS; type: cell-based, human; conditions: Homo sapiens, 72 h; SAS; repeated experiment; read-out: The results of antibiotic drug inhibiting cancer cell lines (cell viability analysis), SAS
[11] = test system: BCC (basal cell carcinoma); assay: Cell viability analysis, skin cancer BCC; type: cell-based, human; conditions: Homo sapiens, 72 h; BCC; repeated experiment; read-out: The results of antibiotic drug inhibiting cancer cell lines (cell viability analysis), BCC
[12] = test system: MKN-45 (Gastric Adenocarcinoma); assay: Cell viability analysis, gastric cancer MKN-45; type: cell-based, human; conditions: Homo sapiens, MKN-45, 72 h
[13] = test system: HCT116 (p53+) (Colorectal Carcinoma)
[14] = test system: LoVo (Colorectal Adenocarcinoma); assay: Cell viability analysis, colon cancer LoVo; type: cell-based, human; conditions: Homo sapiens, LoVo, 72 h
AsPC-1 = assay: Cell viability analysis, pancreatic cancer AsPC-1; type: cell-based, human; conditions: Homo sapiens, ASPC1, 72 h; AsPC-1; repeated experiment; read-out: The results of antibiotic drug inhibiting cancer cell lines (cell viability analysis), AsPC-1
[15] = test system: C-33A (Cervical carcinoma); assay: Cell viability analysis, cervical cancer C-33A; type: cell-based, human; conditions: Homo sapiens, 72 h; C-33A; repeated experiment; read-out: The results of antibiotic drug inhibiting cancer cell lines (cell viability analysis), C-33A
[16] = test system: HeLa (Cervix Adenocarcinoma); assay: Cell viability analysis, cervical cancer HeLa; type: cell-based, human; conditions: Homo sapiens, HeLa, 72 h, HeLa
[17] = test system: A375 (Amelanotic Melanoma); assay: Cell viability analysis, skin cancer A375; type: cell-based, human; conditions: Homo sapiens, A-375, 72 h
[18] = test system: PC3 (p53−) (Prostate Adenocarcinoma); assay: Cell viability analysis, prostate cancer PC3; type: cell-based, human; conditions: Homo sapiens, 72 h
BxPC-3 = assay: Cell viability analysis, pancreatic cancer BxPC-3; type: cell-based, human; conditions: Homo sapiens, 72 h; BxPC-3; repeated experiment; read-out: The results of antibiotic drug inhibiting cancer cell lines (cell viability analysis), BxPC-3
[19] = H1650, repeated experiment, read-out: The results of antibiotic drug inhibiting cancer cell lines (cell viability analysis), H1650
[20] = drug 10 μM, 72 hours, WST-1, OD450 nm, read-out: cell viability (survival rate), H1650
[21] = AGS, repeated experiment, read-out: The results of antibiotic drug inhibiting cancer cell lines (cell viability analysis), AGS
[22] = drug 10 μM, 72 hours, WST-1, OD450 nm, read-out: cell viability (survival rate), AGS
[23] = drug 10 μM, 72 hours, WST-1, OD450 nm, read-out: cell viability (survival rate), TSGH
[24] = A549, repeated experiment, read-out: The results of antibiotic drug inhibiting cancer cell lines (cell viability analysis), A549
[25] = drug 10 μM, 72 hours, WST-1, OD450 nm, read-out: cell viability (survival rate), A549
[26] = MCF-7, repeated experiment, read-out: The results of antibiotic drug inhibiting cancer cell lines (cell viability analysis), MCF-7
[27] = drug 10 μM, 72 hours, WST-1, OD450 nm, read-out: cell viability (survival rate), MCF7
[28] = MKN-45, repeated experiment, read-out: The results of antibiotic drug inhibiting cancer cell lines (cell viability analysis), MKN-45
[29] = drug 10 μM, 72 hours, WST-1, OD450 nm, read-out: cell viability (survival rate), MKN-45
[30] = read-out: The results of antibiotic drug inhibiting cancer cell lines (cell viability analysis), LoVo, repeated experiment
[31] = read-out: cell viability (survival rate), LoVo, drug 10 μM, 72 hours, WST-1, OD450 nm
[32] = repeated experiment, read-out: The results of antibiotic drug inhibiting cancer cell lines (cell viability analysis), HeLa
[33] = drug 10 μM, 72 hours, WST-1, OD450 nm, read-out: cell viability (survival rate), HeLa
[34] = A375, repeated experiment, read-out: The results of antibiotic drug inhibiting cancer cell lines (cell viability analysis), A375
[35] = drug 10 μM, 72 hours, WST-1, OD450 nm, read-out: cell viability (survival rate), A375
[36] = PC-3, repeated experiment, read-out: The results of antibiotic drug inhibiting cancer cell lines (cell viability analysis), PC-3
[37] = drug 10 μM, 72 hours, WST-1, OD450 nm, read-out: cell viability (survival rate), PC3

SMILES | viability at 10 µM [1] [%] | viability at 10 µM (U-2OS) [%] | viability at 10 µM [2] [%] | viability at 10 µM (NIH: OVCAR-3) [%] | viability at 10 µM [3, 19] [%] | viability at 10 µM [3, 20] [%] | viability at 10 µM (T24) [%] | viability at 10 µM [4] [%] | viability at 10 µM [5, 21] [%] | viability at 10 µM [5, 22] [%] | viability at 10 µM [6, 23] [%] | viability at 10 µM [7, 24] [%] | viability at 10 µM [7, 25] [%] | viability at 10 µM [8] [%] | viability at 10 µM (TOV-21G) [%] | viability at 10 µM [9, 26] [%] | viability at 10 µM [9, 27] [%] | viability at 10 µM [10] [%] | viability at 10 µM [11] [%] | viability at 10 µM [12, 28] [%] | also measured
CCCCCCCCCCCCCCCC[N+](C)(C)CCN(Cc1ccc(OC)cc1)c1ncccn1 [Thonzonium Bromide] | 33.1 | 31.7 | 51.3 | 55.7 | 37.6 | 36.7 | 18.5 | 16.8 | 14.4 | 22.5 | 18.4 | 15 | 36.6 | 35.2 | 17.4 | 41 | 47 | 20.4 | 23.4 | 31.2 | viability at 10 µM ([6]; TSGH-8301, repeated experiment, read-out: The results of antibiotic drug inhibiting cancer cell lines (cell viability analysis), TSGH-8301): 16.7%; viability at 10 µM [12, 29]: 47%; viability [13]: 18.8%; viability at 10 µM [14, 30]: 50.9%; viability at 10 µM [14, 31]: 39.4%; viability at 10 µM (AsPC-1): 27.6%; viability at 10 µM [15]: 32.5%; viability at 10 µM [16, 32]: 20.3%; viability at 10 µM [16, 33]: 28%; viability at 10 µM [17, 34]: 12.4%; viability at 10 µM [17, 35]: 24.4%; viability at 10 µM [18, 36]: 29.3%; viability at 10 µM [18, 37]: 46.2%; viability at 10 µM (BxPC-3): 24.4%
CCc1cc2c(cc1CC)CC(NC[C@H](O)c1ccc(O)c3[nH]c(=O)ccc13)C2 [Indacaterol Maleate] | 103 | 62.6 | 97.6 | 79.3 | 86.6 | 36 | 122 | 82.6 | 50.2 | 54.1 | 56 | 79.6 | 65.1 | 87.2 | 95.3 | 72.5 | 68.7 | 61.7 | 82.1 | 84.5 | viability at 10 µM [12, 29]: 30.3%; viability [13]: 91.9%; viability at 10 µM [14, 30]: 79.1%; viability at 10 µM [14, 31]: 61.4%; viability at 10 µM (AsPC-1): 85.4%; viability at 10 µM [15]: 94.3%; viability at 10 µM [16, 32]: 96.6%; viability at 10 µM [16, 33]: 71.8%; viability at 10 µM [17, 34]: 87.2%; viability at 10 µM [17, 35]: 45.7%; viability at 10 µM [18, 36]: 100%; viability at 10 µM [18, 37]: 55.5%; viability at 10 µM (BxPC-3): 91.4%
